Reference: US20060058274A1, “Use of an aldosterone receptor antagonist to improve cognitive function” (Pharmacia Corporation, priority 2000, published 2006)
Marks after values point to notes of the source that are not given here.

What was measured:
[1] = system: patients with mild-to-moderate hypertension; test: Phase II dose-ranging study of eplerenone in mild-to-moderate hypertension; format: in vivo, human; settings: 50 mg BID
Source text: The adjusted mean changes (in mmHg) in diastolic blood pressure (DBP) and systolic blood pressure (SBP) from baseline to final visit are shown in Table 1A.

animal models = settings: cited from earlier work
rats = settings: prior treatment; scopolamine cholinergic blockade; cited from earlier work
[2] = system: patients with severe heart failure; test: Clinical study in patients with severe heart failure: HRQOL by SF-36; format: in vivo, human; settings: for Change from baseline in SF-36 Bodily Pain / Change from baseline in SF-36 General Health / Change from baseline in SF-36 Mental Composite Summary (MCS) / Change from baseline in SF-36 Mental Health / Change from baseline in SF-36 Physical Composite Summary (PCS) / Change from baseline in SF-36 Physical Functioning / Change from baseline in SF-36 Role Limitations - Emotional / Change from baseline in SF-36 Role Limitations - Physical / Change from baseline in SF-36 Social Functioning / Change from baseline in SF-36 Vitality: 25 mg daily, mean ± SD; for Effect size estimate for change in SF-36 Bodily Pain / Effect size estimate for change in SF-36 General Health / Effect size estimate for change in SF-36 Mental Composite Summary (MCS) / Effect size estimate for change in SF-36 Mental Health / Effect size estimate for change in SF-36 Physical Composite Summary (PCS) / Effect size estimate for change in SF-36 Physical Functioning / Effect size estimate for change in SF-36 Role Limitations - Emotional / Effect size estimate for change in SF-36 Role Limitations - Physical / Effect size estimate for change in SF-36 Social Functioning / Effect size estimate for change in SF-36 Vitality: [mean (spironolactone) − mean (placebo)]/(SD placebo at baseline)
Source text: Patients: One thousand six hundred and sixty-three (1,663) patients with severe heart failure were enrolled in the study. […] Treatment with digitalis and vasodilators was allowed, but potassium-sparing diuretics were not permitted. Oral potassium supplements were not recommended unless hypokalemia (serum potassium ≦3.5 mmol per liter) developed. A low salt diet (100-200 mEg/day, sodium) was recommended to all patients. Patients were excluded from the trial if they had clinically significant operable valvular disease (other than mitral or tricuspid regurgitation), congenital heart disease, unstable angina, primary hepatic failure, active malignancy, a heart transplant or were a candidate for heart transplantation, or any life threatening diseae (other than heart failure). Other criteria for exclusion were a serum creatinine concentration >2.5 mg per deciliter (>220 μmol per liter) or a serum potassium concentration >5.0 mmol per liter. The protocol was approved by the Institutional Review Boards or Ethics Committees of all participating institutions. Written informed consent was obtained from all patients.
Study Group: Subjects were randomly assigned to receive either spironolactone 25 mg daily or placebo. HRQOL was assessed in a subsample of 90 subjects in 2 participating countries using the Medical Outcomes Trust Short-Form 36-item Health Survey (SF-36). Assessments were scheduled at baseline, 1, 2, 3, and 6 months after initiation of therapy.
HRQOL Evaluation: HRQOL was assessed using the Short-Form 36-item Health Survey (SF-36). (Ware J E, Snow K K, Kosinski M, Gandek B. SF-36 Health Survey: Manual and Interpretation Guide. Boston, Mass.: The Health Institute, 1993). Assessments were scheduled at baseline, 1, 2, 3, 6 and 12 months after initiation of therapy. The analysis presented herein is limited to 6-month follow-up as less than 50% of subjects had 12-month follow-up data.
Statistical Analyses: Change from baseline was assessed for the 8 dimension scores of the SF-36, as well as the Physical (PCS) and Mental Composite Summary (MCS) scores. (Ware J E, Kosinski M, Keller S D. SF-36 Physical and Mental Health Summary Scales: A User's Manual. Boston, Mass.: The Health Institute, 1994). The PCS and MCS are generated to represent weighted summaries scores of the four physical functioning scales and four mental functioning scales of the SF-36. The summary scores are generally regarded as having improved reliability and precision as they are based on an incrementally larger number of health states contained in the SF-36 items. (Ware J E, Kosinski M, Keller S D. SF-36 Physical and Mental Health Summary Scales: A User's Manual. Boston, Mass.: The Health Institute, 1994.) Changes from baseline scores were compared between groups using non-directional independent groups t-tests. An alpha level of 0.05 was considered to be statistically significant. As an indicator of the responsiveness of the SF-36 scales to changes in health-related quality of life in severe heart failure patients, effect size estimates were also calculated. Effect size estimates were calculated as [mean (spironolactone)−mean (placebo)]/(SD placebo at baseline). (Hays R D, Anderson R, Revicki D. Psychometric considerations in evaluating health-related quality of life. Quality of Life Research 1993;2:441-449; Samsa G, Edelman D, Rothman M L, et al. Determining clinically important differences in health status measures. A general approach with illustrations to the Health Utilities Index Mark II. PharmacoEconomics1999;15:141-155). All analyses were carried out using SAS System for Windows, Release 6.12. (SAS version 6.12, SAS Institute Inc., North Carolina, 1996).
Patient Characteristics: Baseline HRQOL was assessed in a subsample of 90 subjects in 2 participating countries (i.e., Brazil and Canada). Forty-six subjects were randomized to spironolactone; 44 were randomized to the placebo arm. Sixty subjects had complete data for the 6 months of follow-up.

women with PMS = settings: cited from earlier work
[3] = ambulatory blood pressure monitoring
[4] = 3 months, listed as spironolactone
[5] = 6 months, listed as spironolactone
[6] = added to conventional heart failure therapy, severe HF
[7] = 100 mg daily from day 14 of menstrual cycle, compared to placebo, p<0.001

CC(=O)SC1CC2=CC(=O)CCC2(C)C2CCC3(C)C(CCC34CCC(=O)O4)C12 (stereo not shown) [Spironolactone, 17-hydroxy-7″-mercapto-3-oxo-17″-pregn-4-ene-21-carboxylic acid γ-lactone acetate]
adjusted mean change in ABPM DBP from baseline to final visit [1, 3]: −8.7 mmHg
adjusted mean change in ABPM SBP from baseline to final visit [1, 3]: −15.8 mmHg
adjusted mean change in Cuff DBP from baseline to final visit ([1]; eight-week study): −9.5 mmHg
adjusted mean change in Cuff SBP from baseline to final visit ([1]; eight-week study): −16.7 mmHg
myocardial fibrosis (animal models): prevents
enhanced reactivity to novelty (rats): ameliorated
Change from baseline in SF-36 Bodily Pain ([2]; 3 months): 19.6 ± 30.0^a
Change from baseline in SF-36 General Health ([2]; 3 months): 9.7 ± 20.4^a
Change from baseline in SF-36 Mental Composite Summary (MCS) ([2]; 3 months): 13.2 ± 11.8^a,b
Change from baseline in SF-36 Mental Health ([2]; 3 months): 19.9 ± 21.2^a,b
Change from baseline in SF-36 Physical Composite Summary (PCS) ([2]; 3 months): 3.0 ± 8.1^a
Change from baseline in SF-36 Physical Functioning ([2]; 3 months): 7.9 ± 19.4^a
Change from baseline in SF-36 Role Limitations - Emotional ([2]; 3 months): 37.8 ± 46.1^a
Change from baseline in SF-36 Role Limitations - Physical ([2]; 3 months): 23.3 ± 40.1^a
Change from baseline in SF-36 Social Functioning ([2]; 3 months): 24.6 ± 33.6^a
Change from baseline in SF-36 Vitality ([2]; 3 months): 16.7 ± 24.1^a
Change from baseline in SF-36 Mental Composite Summary (MCS) [2, 4]: 13.2±11.8
Change from baseline in SF-36 Mental Health [2, 4]: 19.9±21.2
Effect size estimate for change in SF-36 Bodily Pain ([2]; 3 months): 0.40
Effect size estimate for change in SF-36 General Health ([2]; 3 months): 0.03
Effect size estimate for change in SF-36 Mental Composite Summary (MCS) ([2]; 3 months): 0.86
Effect size estimate for change in SF-36 Mental Health ([2]; 3 months): 0.76
Effect size estimate for change in SF-36 Physical Composite Summary (PCS) ([2]; 3 months): −0.21
Effect size estimate for change in SF-36 Physical Functioning ([2]; 3 months): −0.23
Effect size estimate for change in SF-36 Role Limitations - Emotional ([2]; 3 months): 0.48
Effect size estimate for change in SF-36 Role Limitations - Physical ([2]; 3 months): 0.33
Effect size estimate for change in SF-36 Social Functioning ([2]; 3 months): 0.26
Effect size estimate for change in SF-36 Vitality ([2]; 3 months): −0.07
Change from baseline in SF-36 Bodily Pain ([2]; 6 months): 15.9 ± 30.5^a
Change from baseline in SF-36 General Health ([2]; 6 months): 12.0 ± 22.3^a
Change from baseline in SF-36 Mental Composite Summary (MCS) ([2]; 6 months): 10.3 ± 12.8^a
Change from baseline in SF-36 Mental Health ([2]; 6 months): 17.5 ± 22.9^a,b
Change from baseline in SF-36 Physical Composite Summary (PCS) ([2]; 6 months): 3.9 ± 9.1^a
Change from baseline in SF-36 Physical Functioning ([2]; 6 months): 11.4 ± 21.5^a
Change from baseline in SF-36 Role Limitations - Emotional ([2]; 6 months): 24.0 ± 39.9^a
Change from baseline in SF-36 Role Limitations - Physical ([2]; 6 months): 14.8 ± 32.3^a
Change from baseline in SF-36 Social Functioning ([2]; 6 months): 23.1 ± 32.1^a
Change from baseline in SF-36 Vitality ([2]; 6 months): 19.0 ± 25.5^a
Change from baseline in SF-36 Mental Composite Summary (MCS) [2, 5]: 10.3±12.8
Change from baseline in SF-36 Mental Health [2, 5]: 17.5±22.9
Effect size estimate for change in SF-36 Bodily Pain ([2]; 6 months): 0.28
Effect size estimate for change in SF-36 General Health ([2]; 6 months): 0.08
Effect size estimate for change in SF-36 Mental Composite Summary (MCS) ([2]; 6 months): 0.64
Effect size estimate for change in SF-36 Mental Health ([2]; 6 months): 0.59
Effect size estimate for change in SF-36 Physical Composite Summary (PCS) ([2]; 6 months): −0.07
Effect size estimate for change in SF-36 Physical Functioning ([2]; 6 months): −0.11
Effect size estimate for change in SF-36 Role Limitations - Emotional ([2]; 6 months): −0.42
Effect size estimate for change in SF-36 Role Limitations - Physical ([2]; 6 months): −0.18
Effect size estimate for change in SF-36 Social Functioning ([2]; 6 months): 0.20
Effect size estimate for change in SF-36 Vitality ([2]; 6 months): 0.13
effect on physical health or functioning [2, 6]: no detrimental effect
impact on mental health status [2, 6]: strong, positive impact
negative mood symptom scores (women with PMS; [7]): significant decrease
somatic symptom scores (women with PMS; [7]): significant decrease
irritability, depression, feeling of swelling, breast tenderness and food craving (women with PMS; in comparison to placebo): significantly improved
